Source: patent publication US12220438B2, “Protein based cannabis compositions” (IZUN PHARMACEUTICALS CORP., priority 2019, dated 2025)
Where two headings read alike, the source gives them in different places.

Legend:
[1] = Attempt to dissolve pure CBD in beverages; format: physicochemical; details: 2.7 mg in 25 ml of beverage
Protocol: Samples of still water (Mei Eden bottled water), carbonated water (made by Tempo Soda), alcoholic lager beer (Carlsberg) and orange juice (made by Primor) were prepared using each of CBD-Whey and Whey only. 25 ml of beverage was prepared for each sample, and 45 mg of CBD-Whey (which contains 2.7 mg of CBD). […] The study continued with comparison of CBD-Whey and Whey only. Volunteers, who were Cannabis naïve, were given 8 samples, in a randomized order and were asked to fill a questionnaire relating to appearance, taste and smell of samples. Evaluations were performed by 6 volunteers for each of the 8 samples (four beverages with CBD-Whey and four beverages with Whey only.)

[2] = THC in plasma, intravenously, 5 mg/kg single dose
[3] = male, Sprague-Dawley, rat, plasma, iv, 5 mg/kg

Row | SMILES | dissolution in beverages [1] | AUC0−∞/D [2] [kg·ng·h/mL/mg] | CL/F [2] [mL/min/kg] | Cmax/D [2] [kg·ng/mL/mg] | F (THC, intravenously, 5 mg/kg single dose (reference)) [%] | AUC(0-inf) [3] [ng·h/mL] | AUC(0-t) [3] [ng·h/mL] | Cmax [3] [ng/mL] | Tmax [3] [min] | half-life (male, Sprague-Dawley, rat, plasma, iv, 5 mg/kg, t1/2, THC in plasma, intravenously, 5 mg/kg single dose) [h] | half-life (male, Sprague-Dawley, rat, plasma, iv, 5 mg/kg, terminal t1/2, after IV administration, analysis that included the 24 hr time point) [h]
1 | C=C(C)[C@@H]1CCC(C)=C[C@H]1c1c(O)cc(CCCCC)cc1O [CBD, cannabidiol] | crystalline CBD was visible | – | – | – | – | – | – | – | – | – | –
2 | CCCCCc1cc(O)c2c(c1)OC(C)(C)[C@@H]1CCC(C)=C[C@@H]21 [IV, tetrahydrocannabinol] | – | 121 | 137.2 | 202 | 100 | 607 | 575 | 1010 | 5 | 10.8 | ~10
